Experiment [1] deals with locally advanced breast cancers. To be noted: weekly doxorubicin 14 mg/m^2 for 16 weeks, n=20; cited from earlier work.
The subject of the next experiment is cT3-T4 breast tumors. Briefly: Independent dataset: four cycles of pre-operative single agent docetaxel, pathological response. The experiment is classed as in vivo, human. The source says: Next, we applied the 90-supergene panels for pathological response to the original cohort using unsupervised hierarchical clustering, and found, expectedly, the predictors to be highly accurate; the division yielded groups with different PFS, though not statistically significant (Table 1). To validate the pathological response signatures further, we applied them, using SVM, in an independent set of 18 patients treated with four cycles of neoadjuvant three-weekly single agent docetaxel prior to surgery, who had tumor biopsy before and 3 weeks after one chemotherapy cycle. Pathological response definition was similar to our original cohort. Consistent with the findings for the PFS predictors, T2 outperformed T1 signatures, with the AUC of ROC being 0.631 (95% CI 0.350-0.912) for T2 compared to 0.462 (95% CI 0.190-0.733) and 0.446 (95% Cl 0.161-0.731) for TΔ and T1 respectively. T2 signatures accurately identified 77% of poor pathological responders, compared to 54% for both T1 and TΔ (FIG. 2c-d).
An independent dataset comprising of 18 breast cancer patients treated with pre-operative chemotherapy followed by surgery as part of another clinical protocol at our institution was used to validate the gene expression signatures that predict for pathological response. Validation was performed using SVM. In brief, patients from this independent dataset had cT3-T4 breast tumors and were treated with four cycles of pre-operative single agent docetaxel every three weeks. […] Patients underwent lumpectomy or mastectomy and axillary clearance after chemotherapy, and were classified as good (5/18) and poor (13/18) pathological responders using the same criteria as described in our primary cohort. This dataset was not used to validate the PFS signatures as the median follow-up was short at 18.5 months, and only 5/18 had progressed at the time of analysis.

Where [2] appears, read: four cycles of docetaxel every three weeks, then surgery, n=18.

This is an account of results in patent publication US20110104702A1, “Methods for Predicting Tumor Response to Chemotherapy and Selection of Tumor Treatment” (NATIONAL UNIVERSITY HOSPITAL, priority 2008, published 2011).

As for `COc1cccc2c1C(=O)c1c(O)c3c(c(O)c1C2=O)C[C@@](O)(C(=O)CO)C[C@@H]3O[C@H]1C[C@H](N)[C@H](O)[C@H](C)O1` [doxorubicin], in experiment [1], the median relapse-free survival was 25 months and the patients relapsed is on record as 12/20.

As to `CC(=O)O[C@@]12CO[C@@H]1C[C@H](O)[C@@]1(C)C(=O)[C@H](O)C3=C(C)[C@@H](OC(=O)[C@H](O)[C@@H](NC(=O)OC(C)(C)C)c4ccccc4)C[C@@](O)([C@@H](OC(=O)c4ccccc4)[C@H]21)C3(C)C` [docetaxel], in the experiment with cT3-T4 breast tumors (setting [2]), the good pathological responders was 5/18 and the poor pathological responders is given as 13/18. In addition, the “patients progressed at the time of analysis” value in the experiment on cT3-T4 breast tumors (median follow-up 18.5 months) was 5/18.
